The source of these data is US5434171A, “Preparation of 3,4,4-trisubstituted-piperidinyl-N-alkylcarboxylates and intermediates” (priority 1993, dated 1995).

A short description of data set [1]: pKa determination. The class given is physicochemical. The following applies: 67% aq. dmf.
The procedure of data set [2]: Alternatively, a crystalline salt of compound 19F.B. (free base) can be prepared as illustrated in Scheme 2 supra. Crystallization studies were conducted using 17 different acids with three solvents; ethyl acetate, acetone, and ethanol.

Counter-ions that a name gives are not always drawn.

A word on the pKa: it is the negative logarithm of the acid dissociation constant. Read a low pKa as a group that gives up its proton readily. Take `CC(C)COC(=O)CN` [Isobutyl glycine, p-toluenesulfonic acid salt]: in data set [1], the pKa came out at 7.68. Regarding `O=C(O)C[C@H](O)C(=O)O` [L-malic], in data set [2], the “stability of crystalline salt of 19F.B.” value is “crystalline salts stable at 25 °C”.

With `Cl` [hydrochloric], the “stability of crystalline salt of 19F.B.” value in data set [2] was “crystalline salts stable at 25 °C”.
